# System: mixed species biofilm
# Assay: Seahorse XFe Extracellular Flux Analyzer, Mitochondrial Respiration - Oxygen Consumption Rate (OCR) in mixed biofilm assay
# Type: cell-based
# Method: Samples with varying amounts of cannabidiol (CBD) are assessed for their effects on cellular metabolism with and without various source of zinc. Using the Seahorse XF^e Extracellular Flux Analyzer, biofilm samples are grown for 48 hrs. […] The biofilms are harvested for culture. Diluted biofilm and toothpaste slurry are loaded to each well. Glycolysis—Extracellular Acidification Rate (ECAR) and Mitochondrial Respiration—Oxygen Consumption Rate (OCR) is measured for 25-50 cycles (˜360 minutes). The “CBD Oil” is 5% CBD (by wt. of the CBD Oil) in Hemp seed oil.
# Where the “OCR” is oxygen consumption rate units as measured using the Seahorse XF^e Extracellular Flux Analyzer: […]
Structure (SMILES),"Average (OCR) (Table 3, separate experiment, stannous slurry, untreated 11489.9)","Average (OCR) (Table 1, CBD and zinc lactate, biofilm grown 48 hrs, untreated 25,669.50)"
"[F][Sn][F] [0.2% by wt. Stannous Fluoride, Stannous Fluoride]",10440.7,–
"CC(O)C(=O)[O-].CC(O)C(=O)[O-].[Zn+2] (centres unmarked) [1.5% Zinc Lactate, Zinc Lactate]",–,"21,900.63"
